On to `COc1ccc(Cl)cc1C(=O)NC1COc2cc(C)ccc2C1` (configuration not stated), for which the melting point was found to be 97 °C.
Compound `CON1C(C)(C)CC(OC(=O)c2ccc3nn(-c4cc(C(C)(C)CC(C)(C)C)cc(C(C)(C)c5ccccc5)c4O)nc3c2)CC1(C)C` displayed a melting point of 84 to 90 °C.
The compound `COc1ccc(CNC(=O)[C@@H](NC(=O)[C@H](NCc2cccc3ccccc23)[C@H](O)[C@H](Cc2ccccc2)NC(=O)OC(C)(C)C)C(C)C)c(O)c1` had a melting point of 95 to 98 °C.
For `Cn1c(COc2ccc(CC3SC(=O)NC3=O)cc2)nc2ccc(Oc3ccc(NC(=O)Nc4cccc5ccccc45)cc3)cc21` (configuration not stated), the melting point was 211 to 214 °C.
With `CCOC(=O)CCCOc1nn2c(-c3ccc(OC)cc3)nnc2c2ccccc12`, the melting point fell in the range of 114 to 117 °C.
With `COC(=O)c1nc(N)sc1-c1ccc(SC)cc1`, the melting point was in the range of 184 to 185 °C.
Turning to `O=C(CCl)OCN1C(=O)CN(CCN2CC(=O)N(COC(=O)CCl)C(=O)C2)CC1=O`, the melting point fell in the range of 132 to 134 °C.
Compound `CCc1nn(-c2cc([N+](=O)[O-])ccc2Br)c(=O)n1Cc1ccc(-c2ccccc2S(=O)(=O)NC(C)(C)C)cc1F` displayed a melting point of 223 to 225 °C.
As for `CN1C2C=C(c3cc4ccccc4s3)CC1CCC2` (configuration not stated), the figure is 91.3 to 93.5 °C.
The compound `OC(Cn1cncn1)c1ccc(Cl)cc1Cl` (configuration not stated) yielded a melting point of 87 °C.
Next, `CC1(C)OC(=S)Nc2ccc(-c3cccc(F)c3)cc21`: 194 to 195 °C; `Cn1c(C(F)(F)F)nn(-c2cc(NS(C)(=O)=O)c(C#N)cc2F)c1=O`: 67 °C; `Cc1ccccc1P(=O)(O)c1ccccc1C`: 174 to 175 °C.
`COC(=O)c1cc(C(=O)OC)n(-c2ccc(Cl)cc2C(=O)c2ccccc2)n1` returned a melting point of 118 to 120 °C.
The compound `O=C(COC1CCCCO1)c1ccccn1` (configuration not stated) registered a melting point of 63 to 65 °C.
`CC(C)OP(=O)(/C=C/C(CO)Cn1cnc2c(N)ncnc21)OC(C)C` (configuration not stated) gave a melting point of 130 °C.
The compound `CCC(C)C(C(=O)NS(C)(=O)=O)c1nc(OC)cc(OC)n1` (configuration not stated) had a melting point of 97 to 101 °C.
Compound `COc1c(Cl)cc2c(Cl)nc(Cl)nc2c1OC` registered a melting point of 154 to 155 °C.
`CCc1nc2cc(C(F)(F)F)c(Cl)cc2n1-c1ccc(CCOC(=O)NS(=O)(=O)c2ccccn2)cc1` displayed a melting point of 127 to 130 °C.
As to `CC1CC(c2ncc3nccc-3[nH]2)C(C)C(c2ccccc2)N1` (configuration not stated), the melting point is 131 to 132 °C.
Regarding `Clc1nccnc1N1CCNCC1`, the melting point was in the range of 47 to 53 °C.
In the case of `CCCN(CCC)CCc1ccc(O)c2nc[nH]c12`, the melting point lay in the range of 135 to 139 °C.
Consider `Cn1ncc2c1-c1ccc(Cl)cc1C(c1ccccc1F)=NC2`, for which the melting point was 128 to 130 °C.
`Cc1c(C(=O)Nc2ccc(N3CCC(N4CCOCC4)CC3)c(C#N)c2)cnn1-c1ccc(Cl)cc1`: the melting point was 249 to 250 °C.
Compound `CCOC(=O)c1c(SC)sc2c(F)c(F)c(F)cc2c1=O` registered a melting point of 113 to 115 °C.
`COC1(NC(=O)c2ccccc2)CC1` displayed a melting point of 190 to 191 °C.
On to `CCCCSc1c[nH]nc1C1=CCCN(C)C1`, for which the melting point was in the range of 120 to 121 °C.
With `CC(C)(C)C(NC(=O)c1ccc(Cl)cc1)NC(=NC#N)Nc1cc(F)cc(F)c1` (configuration not stated), the melting point fell in the range of 196 to 198 °C.
In turn, `COC(=O)c1cccc(Nc2nc(Cl)nc3[nH]cnc23)c1` returned a melting point of 242 °C.
Regarding `Cn1cc(C(=O)NCc2ccc(Cl)cc2)c(=O)c2cc(CO)sc21`, the melting point was 222 to 225 °C.
`CCCNc1ccc(-c2nc(=O)c3ccccc3s2)cn1` had a melting point of 210 to 211 °C.
The compound `COC(=O)c1ccccc1-c1cc(-c2ccc(Cl)cc2)on1` came in with a melting point of 85 to 86 °C.
Next, `Oc1ccc(-c2cc3c(O)cc(O)cc3o2)cc1`: 216 to 217 °C.
Next, `CC(C)CC1(C(CC(C)Sc2cccs2)C(=O)NO)CCN(CCc2ccccc2)C1=O` (configuration not stated): 104 to 105 °C.
Turning to `COC(=O)C1CCn2c1cc(Br)c2C(=O)c1ccccc1` (configuration not stated), the melting point was 93 °C.
Next, `CC(C(=O)O)c1ccc2cc(O)ccc2c1` (configuration not stated): 186 to 188 °C.
Compound `CCOC(=O)c1ccc(NC(C)=O)cc1C(=O)OCC` returned a melting point of 118 to 121 °C.
`N#CC(O)C1(F)CCN(C(=O)c2ccc(F)c(Cl)c2)CC1` (configuration not stated) displayed a melting point of 139 to 140 °C.
Regarding `COc1ccc(S(=O)(=O)Nc2cccnc2Nc2ccc(F)cc2)cc1`, the melting point was 196 to 197 °C.
The compound `C=CCc1cccc(C[C@H](NC(=O)OC(C)(C)C)[C@H](O)CCl)c1` gave a melting point of 123 to 126 °C.
For the compound `C#CCOc1ccc(-c2nc3cnccc3[nH]2)c(OC)c1`, the melting point was 210 °C.
On to `CCc1cc2c(s1)-n1c(C)nnc1C(CC(=O)Nc1ccccc1)N=C2c1ccc(Cl)cc1` (configuration not stated), for which the melting point was 238 to 239 °C.
`COc1ccc(C(=O)O)cc1Oc1ccc(C(F)(F)F)cc1Cl`: the melting point lay in the range of 162 to 165 °C.
In turn, `CCOC(=O)COc1ccc(C2OCCCO2)cc1NC(=O)c1ccc(OCCCCc2ccccc2)cc1` yielded a melting point of 73 °C.
`c1ccc(-c2ncc(-c3ncco3)cn2)cc1` displayed a melting point of 175 to 177 °C.
`O=c1[nH]c2ccc(Cl)cc2c(=O)n1CCCCN1CC=C(c2ccccc2)CC1` came in with a melting point of 214 to 222 °C.
`O=C1C=C(CO)C(=O)N1` had a melting point of 104 to 106 °C.
`Cc1cc(-c2cc(C(F)(F)F)n3ncc(-c4ccccn4)c3n2)ccc1Cl` yielded a melting point of 183 °C.
`CC(C)N(Cc1ccccc1)CC(O)COc1cccc2[nH]cc(C=O)c12` (configuration not stated) registered a melting point of 107 to 109 °C.
With `Cc1cc(C)c(-c2cn(C)c3nc(NC(=O)N(C)C)n(C)c(=O)c23)c(C)c1`, the melting point lay in the range of 221 to 223 °C.
As for `O=[N+]([O-])C=C1NCCCS1`, the figure is 76 to 78 °C.
`Nc1nc(N)c2ncn(/C=C3/CC3(CO)CO)c2n1` displayed a melting point of 219 to 220 °C.
With `Cc1cc2ccccc2nc1Sc1ccc2c(c1)CC[C@H]1N(C)C(=O)CC[C@]21C`, the melting point lay within 185 to 193 °C.
Next, `Cn1nc(-c2cnc(N)nc2-c2ccco2)ccc1=O`: 234 °C; `Cn1c2c(c3cc(F)ccc31)C(=O)NCC2`: 200 to 202 °C.
Take `C[C@@H]1N(C)C(C)(C)CO[C@@]1(O)c1ccc(Cl)cc1`: the melting point is 167 to 169 °C.
In the case of `Cc1cc2cccc(OS(=O)(=O)C(F)(F)F)c2nc1-c1ccccc1`, the melting point amounted to 85 °C.
Compound `O=C(O)c1cccc(-c2cccc(OCCc3cccc(C(F)(F)F)c3)n2)c1` registered a melting point of 135 to 136 °C.
Consider `CCOC(=O)c1cnc2c(F)cc(I)cc2c1O`, for which the melting point was 287 to 289 °C.
Take `Cn1ncc(/C=C\C(=O)O)c1-c1ccc(F)cc1`: the melting point fell in the range of 205 to 206 °C.
Next, `CCn1cc(C(=O)O)c(=O)c2cc(Br)c(N3CCOCC3)cc21`: 266 °C; `C#CC#Cc1ccc(C(=O)O)cc1`: greater than 230 °C.
Compound `Cc1nc(Cl)c2c(n1)N(C)C(=O)CO2` came in with a melting point of 142 to 143 °C.
In the case of `O=C1CCc2cc(Br)ccc2O1`, the melting point fell in the range of 103 to 105 °C.
For `Cc1ccc(S(=O)(=O)NC(=O)OCCc2ccc(-n3c(CCC(=O)N4CCCC4)nc4cc(C(F)(F)F)c(Cl)cc43)cc2)cc1`, the melting point lay in the range of 98 to 105 °C.
The compound `CC(=O)OCC(=O)C1(OC(C)=O)C(C)CC2C3CCC4=CC(=O)C=CC4(C)C3(F)C=CC21C` (configuration not stated) displayed a melting point of 135 to 136 °C.
As for `CC(C)N(CCCC(=O)OC1c2ccccc2C(=O)N1c1ccc2ccc(Cl)nc2n1)C(C)C` (configuration not stated), the figure is 118 °C; as for `Fc1ccc2[nH]c3c(ccc4cc[nH]c43)c2c1`, greater than 250 °C.
In turn, `CS(=O)(=O)c1ccc(C(CC2CCCC2)C(=O)O)cc1` (configuration not stated) yielded a melting point of 152 to 154 °C.
With `COc1ccc(CCNS(=O)(=O)Cc2ccc3[nH]cc(CC#N)c3c2)cc1`, the melting point is 134 to 135 °C.
On to `Cc1oncc1C(=O)c1ccc(S(C)=O)c(Cl)c1Cl` (configuration not stated), for which the melting point lay in the range of 125 to 126 °C.
`Cc1cc(C)cc(-c2nnc(C#N)o2)c1` came in with a melting point of 127 °C.
Next, `O=S(=O)(c1ccccc1)N1CCC(C(c2ccc(F)cc2)c2ccc(F)cc2)CC1`: 180 to 184 °C; `OC1(c2cccc(Cl)c2)CCN(c2nc3ccc(C(F)(F)F)cc3[nH]2)CC1`: 247 °C; `COc1ccc2cnc(Nc3ccc(N4CCNCC4)cn3)nc2c1C1CCCC1`: greater than 200 °C.
As for `COc1ccc(C(=O)c2[nH]c(=O)[nH]c2CN(C)C)cc1`, the figure is 165 to 167 °C.
Take `Brc1ccc(N2CCN(CCCc3[nH]nc4c3CCCC4)CC2)cc1`: the melting point is 145 to 147 °C.
`Cc1cccc2oc(=O)c(=O)[nH]c12` showed a melting point of 247 to 249 °C.
For `Nc1ncc(Sc2cccnc2)s1`, the melting point lay within 140 to 142 °C.
Next, `CCN(CC)CCOc1ccc(Nc2ncc3c(n2)N(C)C(=O)N(c2cc(Cl)ccc2Cl)C3)cc1`: 138 °C; `Cc1ccc2c(C3CN4CCC3CC4)c(C)[nH]c2c1` (configuration not stated): 237 to 238 °C.
Next, `O=C(NCc1cccs1)C12CC3CC(CC(O)(C3)C1)C2`: 140 to 141 °C; `CCOC(=O)c1c(C)csc1N/C=C(\C#N)C(=O)OC(C)(C)C`: 144 °C; `O=c1[nH]c(NCCCOc2cccc(CN3CCCCC3)c2)ncc1CCCc1ccccc1`: 104 to 108 °C.
`Cc1ccc(-c2ccc(C#N)cc2)cc1` had a melting point of 107 to 109 °C.
Next, `COc1ccc(C=C2C(=O)N(C3=NCCS3)c3ccccc32)cc1`: 164 to 167 °C.
Next, `Nc1ncc(-c2cccc(Nc3ccc(-c4ccoc4)cc3[N+](=O)[O-])c2)cn1`: 185 to 186 °C.
As to `O=C1N(Cc2ccc(Br)cc2)c2ccccc2C12COc1cc3c(cc12)OCO3` (configuration not stated), the melting point is 148 to 150 °C.
As for `CCC(=O)c1ccc(OC)c(Cl)c1Cl`, the figure is 51 to 54 °C; as for `CC(C)CCCC(C)C1C=CC2(CC(=O)O)C3=C(CCC12C)C1(C)CCC(O)CC1CC3` (configuration not stated), 221 to 222 °C; as for `COc1ccc(-n2ncc3c2-c2ccccc2C3)cc1`, 102 to 103 °C.
`Cc1ccccc1N1CCc2cnc3c(C)cccc3c21`: the melting point lay within 109 to 110 °C.
